Data as given in patent US9574174B2, “Cell culture” (PLASTICELL LIMITED, priority 2002, dated 2017).

Experiments:
[1] = test system: cytochrome P450 (CyP450) metabolic enzymes; experiment: CyP450 ethoxyresorufin assay on HepG2 cell units; type: cell-based, human
Procedure: A split-pool culture experiment was performed in order to assay tissue culture conditions that might affect a particular cellular process, namely the expression and/or activity of cytochrome P450 (CyP450) metabolic enzymes. Members of this class of enzyme, such as 1A1 and 1A2, can be assayed with the use of a substrate, ethoxyresorufin, that is enzymatically hydrolyzed to produce a product, resorufin, that has distinct fluorescence characteristics that can be used to measure CyP450 enzyme activity. The expression of CyP450 enzymes can be regulated by inducer molecules, such as β-naphthoflavone, and inhibitors such as α-naphthoflavone, quinidine, or aminotriazole. It is also possible for some molecules to induce expression of a CyP450 gene(s), but inhibit activity of the enzyme product of that gene. Therefore, complicated patterns of expression and activity can arise according to the pattern of serial exposure of cells to regulatory compounds. […]
For the CyP450 assay, aliquots of beads in growth medium were removed and the enzyme substrate ethoxyresorufin was added to a final concentration of 10 μM. The samples of beads were placed on a microscope slide with a cover slip, and observed immediately with an epifluorescent microscope using a standard filter set for Texas Red/rhodamine fluorescence (see FIG. 9). […]

mouse ES cells = experiment: RT-PCR detection of differential gene expression in ES cell units after split-split culture; type: cell-based; conditions: DMEM, 1 μM, FIG. 11
Procedure: Pluripotent mouse ES cell units were cultured for five days in ES cell medium (see example 3), the ES medium was decanted and the cell units washed twice with PBS to remove traces of ES medium. The bead population was split into three groups, and the PBS decanted and replaced with one of (i) ES cell medium; (ii) Dulbecco's modified Eagle's medium (DMEM) with 10% fetal calf serum; or (iii) Chemically Defined Medium (CDM; Wiles M V, Johansson B M, 1999, Exp. Cell Res., vol 247, p. 241-8). After one hour culture under standard conditions, each of the three groups were split into three further groups, each of which was incubated in one of: (i) the medium in which the cell groups were cultured; the medium in which the cell groups were cultured including 1 μM LiCl; or (iii) the medium in which the cell groups were cultured including 1 μm retinoic acid (RA). Every other day half the medium was replaced with the respective fresh medium.
Cell units of mouse ES cells induced to differentiate by split-split culture (see example 4) were washed with PBS, and RNA prepared from the cell units using Rneasy reagents according to manufacturer's instructions (Qiagen). RNA samples were then used to prepare first strand cDNA with oligo-dT priming using reverse transcriptase according to the manufacturer's instructions (Invitrogen). […]

Row | P450 level / conversion of ethoxyresorufin to fluorescent product ([1]; HepG2 cell units following a split pool experiment, FIG. 9 Panels E/F) | time until enzyme activity (resorufin fluorescence) is evident after addition of ethoxyresorufin ([1]; HepG2 cell units on CYTODEX 3 treated in a control experiment, 10 μM ethoxyresorufin, control cells about 15-20 minutes) [min] | SMILES | decrease in Oct4 (mouse ES cells)
1 | high levels of P450 | 5 to 10 | O=c1cc(-c2ccccc2)oc2ccc3ccccc3c12 [β-naphthoflavone] | –
2 | – | – | [Cl-].[Li+] [LiCl] | inhibited the reduction
